In US5179090A, “Condensed diazepinones and medicaments containing these compounds” (priority 1989, dated 1993):

Experiments:
[1] = system: muscarine receptors in the ileum; experiment: In vitro dissociation constant on ileum, methacholine antagonism; assay type: cell-based, guinea pig; settings: guinea pig
Method: (§1) Substances having anti-muscarine properties inhibit the effects of exogenically introduced agonists or of acetylcholine which is released from cholinergic nerve endings. A description of methods which are suitable for determining spasmolytically active anti-muscarine agents is given below.
(§2) Dissociation constants ([…]) were determined "in vitro" on the ileum and spontaneously beating vestibule of a guinea pig. The ileum was removed and incubated in an organ bath in Krebs- Henseleit solution. Contractions were induced by increasing concentrations of methacholine (M) such that complete concentration-activity graphs could be plotted. M was then washed out, the substance to be investigated was added and incubated for 30 minutes, and once again a concentration-activity graph was plotted using M.
(§3) Dissociation constants for the muscarine receptors of the vestibule were obtained in the same manner as described above.

[2] = target: T1, muscarine receptors in the ileum (Cavia porcellus, UniProt H0W1Z3); experiment: as above; assay type: cell-based, guinea pig; settings: guinea pig ileum
T1 construct: The ileum was removed and incubated in an organ bath; from tissue; host or cells: isolated ileum of guinea pig
Method: as §1, §2, §3

[3] = target: T2, muscarine receptors of the vestibule (Cavia porcellus, UniProt H0VRN8); experiment: In vitro dissociation constant on spontaneously beating vestibule (heart), methacholine antagonism; assay type: cell-based; settings: guinea pig spontaneously beating vestibule
T2 construct: in the removed, spontaneously beating right vestibule; from tissue; host or cells: isolated spontaneously beating right atrium ('vestibule') of guinea pig
T2 sequence (H0VRN8 1-466): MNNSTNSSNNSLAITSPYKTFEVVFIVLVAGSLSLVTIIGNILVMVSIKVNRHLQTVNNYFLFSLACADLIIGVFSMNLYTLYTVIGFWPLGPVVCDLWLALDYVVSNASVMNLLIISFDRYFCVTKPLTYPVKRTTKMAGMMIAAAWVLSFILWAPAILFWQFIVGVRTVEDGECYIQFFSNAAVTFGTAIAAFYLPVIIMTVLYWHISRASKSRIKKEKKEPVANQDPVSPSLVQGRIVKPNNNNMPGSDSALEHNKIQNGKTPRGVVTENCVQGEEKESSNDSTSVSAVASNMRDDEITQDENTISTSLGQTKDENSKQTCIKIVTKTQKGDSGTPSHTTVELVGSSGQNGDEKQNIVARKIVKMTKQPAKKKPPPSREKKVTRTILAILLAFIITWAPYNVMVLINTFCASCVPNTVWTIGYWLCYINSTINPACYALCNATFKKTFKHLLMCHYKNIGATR
Method: as §1, §2
The dissociation constant according to Arunlakshana and Schild (Brit. J. Pharmacol. 14; 48 (1959)) Was calculated from the dosage ratio (DR) which is the measure of the displacement of the concentration-activity graph.
M reduced the heart rate as a function of concentration in the removed, spontaneously beating right vestibule. This effect was cancelled again by adding an anti-muscarine agent. Dissociation constants for the muscarine receptors of the vestibule were obtained in the same manner as described above. The comparison of the dissociation constants determined in both tissues permitted the identification of selectively spasmolytically active substances.

saliva secretion = experiment: Saliva secretion-inhibiting effect in the rat (pilocarpine-triggered); assay type: in vivo; settings: iv, pilocarpine 2 mg/kg subcutaneous, 50% reduction of saliva volume, read-out: -log ED50 saliva secretion inhibition rat (converted)
Method: (§4) The methods used had the aim of confirming the selectivity of the anti-muscarine effect. Any substances which had been selected on the basis of "in vitro" investigations were investigated for
2. saliva secretion-inhibiting effect in the rat, and
2. Saliva secretion-inhibitino effect in the rat
The secretion of saliva was triggered by subcutaneous administration of 2 mg/kg of pilocarpine. The saliva was absorbed using blotting paper, the surface taken up by it was determined planimetrically every 5 minutes. The dosage of the substance which reduced the volume of saliva by 50% was determined graphically.

[4] = target: T3, M receptors of the bronchial tubes (Cavia porcellus, UniProt H0W1Z3); experiment: Acetylcholine antagonism in anaesthetised guinea pigs: inhibition of bronchoconstriction; assay type: in vivo, guinea pig; settings: iv, 5 min; guinea pig, i.v., acetylcholine antagonism, n=4-6; read-out: -log ED50 bronchial tubes (converted)
T3 construct: Guinea pigs of both sexes (550-600 g body weight) were anaesthetised using urethane; from tissue; host or cells: bronchi of anaesthetised guinea pigs (in vivo)
From the text: as §4
(§5) 1. selectivity of the bronchospasmolytic activity in the guinea pig,
(§6) 1. Effect on M receptors of the bronchial tubes, the heart and the bladder of anaesthetised guinea pigs
(§7) Guinea pigs of both sexes (550-600 g body weight) were anaesthetised using urethane (1.4 g/kg intraperitoneally). A cannula was introduced into the augular vein to inject the active agents. 220 I.U./kg of heparin were injected intravenously. A cannula was introduced into the trachea; the animals were artificially respirated by means of a positive pressure pump (Braun-Melsungen) using oxygen-enriched air at a rate of 80 beats per minute. A branch of the tracheal cannula was connected to a water manometer 10 cm high. The respiration volume was set such that the maximum intratracheal pressure just reached the pressure of a 10 cm water column during respiration.
(§8) The values were recorded using an IFD recording apparatus. The trachea was clamped for a short time before the test to produce the maximum possible degree of bronchoconstriction for calibration. […] The heart rate was measured using a rate detector which is triggered by arterial pulse waves.
(§9) The active substances to be tested were injected via the jugular vein, 5 minutes later the increase in tone of the bladder (in grams) the bronchial resistance (in %) and the decrease in heart rate (beats per minute) were measured after administration of acetylcholine (50 μg/kg intravenously and intraarterially). Dosage-dependency graphs were drawn by plotting the percentage inhibition of bronchoconstriction, bradycardia and the increase in tone of the bladder against the logarithm of the dosage (mole/kg) of the active agents to be investigated. The results are given as average values (n=4-6).

[5] = system: M receptors of the bronchial tubes; experiment: as above; assay type: in vivo, guinea pig; settings: for Ratio influence of bradycardia to bronchoconstriction: guinea pig, i.v., ratio heart (bradycardia) to bronchial tubes; for selectivity for smooth muscle: smooth muscle vs heart rate or saliva secretion
From the text: as §4, §5, §6, §7, §8, §9

M receptors of the heart [6] = target: T4, M receptors of the heart (Cavia porcellus, UniProt H0VRN8); experiment: Acetylcholine antagonism in anaesthetised guinea pigs: inhibition of bradycardia; assay type: in vivo, guinea pig; settings: iv, 5 min; guinea pig, i.v., acetylcholine antagonism (bradycardia), n=4-6; read-out: -log ED50 heart (converted)
T4 construct: from tissue; host or cells: heart of anaesthetised guinea pigs (in vivo)
T4 sequence (H0VRN8 1-466): T2 sequence (H0VRN8 1-466)
From the text: as §4, §6, §7, §8, §9

guinea pig ileum = experiment: In situ spasmolytic effect in guinea pigs (methacholine-induced ileum contractions); assay type: in vivo; settings: i.v.; for ED50: Cavia porcellus, iv, 5 min, guinea pig, methacholine 20 μg/kg intraarterially, n=4 to 8, read-out: -log ED50 in situ spasmolysis guinea pig ileum (converted); for Ratio saliva secretion inhibition to spasmolytic activity: rat saliva secretion vs guinea pig ileum in situ
From the text: as §4
3. in situ spasmolytic activity in the guinea pig.
3 In situ spasmolytic effect in guinea pigs
Male guinea pigs (500 to 600 g body weight) were anaesthetised using urethane (1.2 g/kg intraperitoneally);cannulae Were introduced into the trachea, jugular vein and the left carotid artery. The animals were artificially respirated by means of a positive pressure pump using oxygen-enriched air at a beat frequency of 80 per minute. A 3 to 4 cm abdominal incision was made and about 15 cm of a movable loop of the ileum was removed distally while maintaining the blood circulation. The proximal part was filled with a Krebs-Ringer solution and a pressure meter was introduced into the intestine using a Millar micro-tip catheter (PC-450, 5F). A glass tube was placed vertically in the abdomen and attached to the surrounding abdominal wall such that the animal served as its own organ bath when the glass tube was filled with Krebs-Ringer solution.
The glass tube was filled with Krebs-Ringer solution until the whole of the hypogastrium was immersed. The active agents to be tested were injected via the jugular vein; 5 minutes later contractions were produced by means of methacholine (20 μg/kg intraarterially). Dosage-activity graphs were obtained by plotting the percentage suppression of contractions produced by methacholine against the logarithm of dosage amount (mole/kg) of the active substance to be tested.
The results were given as average values (n=4 to 8) (see Table II).

[7] = target: T5, M receptors of the bladder (Cavia porcellus, UniProt H0W1Z3); experiment: Acetylcholine antagonism in anaesthetised guinea pigs: inhibition of increase in tone of the bladder; assay type: in vivo; settings: iv, 5 min, guinea pig, i.v., n=4-6, read-out: -log ED50 bladder (converted)
T5 construct: the bladder was connected to a power transducer under a resting tension of 1 gram; from tissue; host or cells: urinary bladder of anaesthetised guinea pigs (in vivo)
From the text: as §4, §6, §7
A small median abdominal incision was made and the bladder was connected to a power transducer under a resting tension of 1 gram.
as §9

M receptors of the heart [8] = experiment: Acetylcholine antagonism in anaesthetised guinea pigs: inhibition of bradycardia; assay type: in vivo, guinea pig; settings: comparison, Tables I and III
From the text: as §4, §6, §7, §8, §9

T3 sequence (H0W1Z3 1-590): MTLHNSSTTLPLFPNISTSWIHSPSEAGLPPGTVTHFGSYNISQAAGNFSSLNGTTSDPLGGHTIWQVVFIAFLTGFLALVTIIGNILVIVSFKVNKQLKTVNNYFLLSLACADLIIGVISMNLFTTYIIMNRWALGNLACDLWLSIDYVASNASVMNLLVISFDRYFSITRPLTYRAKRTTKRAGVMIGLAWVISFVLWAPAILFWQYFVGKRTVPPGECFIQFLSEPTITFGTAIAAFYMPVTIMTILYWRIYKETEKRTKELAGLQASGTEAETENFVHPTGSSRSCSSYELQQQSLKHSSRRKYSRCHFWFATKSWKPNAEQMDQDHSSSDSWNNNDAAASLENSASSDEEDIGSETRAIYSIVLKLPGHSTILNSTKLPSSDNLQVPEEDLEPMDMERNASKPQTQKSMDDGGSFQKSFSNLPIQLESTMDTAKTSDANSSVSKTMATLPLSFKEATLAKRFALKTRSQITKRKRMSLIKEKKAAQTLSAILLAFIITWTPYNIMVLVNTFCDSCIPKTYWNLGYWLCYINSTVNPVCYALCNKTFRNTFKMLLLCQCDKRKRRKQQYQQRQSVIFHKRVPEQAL
T1 sequence (H0W1Z3 1-590): as above
T5 sequence (H0W1Z3 1-590): as above

| Compound | Selectivity KB heart to KB ileum [1] | Kb [2] | Kb [3] | ED50 (saliva secretion) | ED50 [4] | Ratio influence of bradycardia to bronchoconstriction [5] | selectivity for smooth muscle [5] | ED50 (M receptors of the heart [6]) | ED50 (guinea pig ileum) | Ratio saliva secretion inhibition to spasmolytic activity (guinea pig ileum) | ED50 [7] | effectiveness on cardiac muscarine receptors (M receptors of the heart [8]) |
| --- | --- | --- | --- | --- | --- | --- | --- | --- | --- | --- | --- | --- |
| CN1CCC2C1CCN2C(=O)N1c2ccccc2C(=O)Nc2cccnc21 (centres unmarked) [A] | 6.9 | 30.2 nM | 209 nM | 0.2 µmol/kg | 0.049 µmol/kg | 21 | very marked smooth muscle selectivity | 1.05 µmol/kg | 0.117 µmol/kg | 2 | 0.49 µmol/kg |  |
| CN1CCC2C1CCN2C(=O)N1c2ccccc2NC(=O)c2cccnc21 (centres unmarked) [B] | 2.4 | 60.3 nM | 145 nM |  | 0.0447 µmol/kg | 44 | very marked smooth muscle selectivity | 1.95 µmol/kg |  |  | 0.813 µmol/kg |  |
| CN1CC2CN(C(=O)N3c4ccccc4C(=O)Nc4cccnc43)CC2C1 (centres unmarked) [C] |  |  |  | 2.95 µmol/kg | 0.631 µmol/kg | 8 |  | 4.79 µmol/kg | 0.708 µmol/kg | 4 | 3.02 µmol/kg |  |
| Cc1scc2c1N(C(=O)N1CC3CN(C)CC3C1)c1ccccc1NC2=O (centres unmarked) [D] |  |  |  |  | 0.0891 µmol/kg | 8 |  | 0.741 µmol/kg |  |  | 1.58 µmol/kg |  |
| CN(C)CC1CCCCN1CC(=O)N1c2ccccc2C(=O)Nc2cccnc21 (centres unmarked) [X] | 0.17 | 617 nM | 105 nM |  | 2.63 µmol/kg | 0.5 |  | 1.45 µmol/kg |  |  | 11.7 µmol/kg | higher effectiveness on cardiac muscarine receptors |
| CN1CCN(CC(=O)N2c3ccccc3C(=O)Nc3cccnc32)CC1 [Y] | 0.63 | 194 nM | 123 nM | 0.38 µmol/kg | 0.269 µmol/kg | 5 | no selectivity | 1.26 µmol/kg | 0.832 µmol/kg | 0.5 | 1.45 µmol/kg |  |
| CN1[C@@H]2CC[C@H]1CC(OC(=O)C(CO)c1ccccc1)C2 (some centres unmarked) [Z] |  |  |  |  | 0.00813 µmol/kg |  |  | 0.0269 µmol/kg | 0.0525 µmol/kg |  | 0.0525 µmol/kg |  |
